Measured values: publication PMC10108821, “Three tyrosine kinase inhibitors cause cardiotoxicity by inducing endoplasmic reticulum stress and inflammation in cardiomyocytes” (BMC Medicine, 2023)
Where two headings read alike, the source gives them in different places.

Experiments:
NRCMs [1] = test: ROS by H2DCFDA staining and flow cytometry; conditions: 3 h; 10 µM afatinib, 10 µM sorafenib, 5.62 µM ponatinib
Experimental: (§1) For ROS assessment, cells were washed with PBS once and stained with 10μM H2DCFHDA (MCE) in phenol red-free DMEM (Procell) in a humid incubator with 5% CO2 at 37°C for 30 minutes. Cells were washed with PBS twice and dissociated to single cells before flow cytometry analysis at the FITC channel. For lipid peroxidation measurement, cells were washed with PBS once and stained with 2μM C11-bodipy^581/591 (Cayman) in phenol red-free DMEM (Procell) in a humid incubator with 5% CO2 at 37°C for 30 minutes. Cells were washed with PBS twice and dissociated to single cells before flow cytometry analysis at both the FITC and the PE channels. Fluorescence of the oxidized C11-bodipy were acquired through the FITC channel (Ex/Em=488/520nm) and that of the non-oxidized C11-bodipy through the PE channel (Ex/Em=555/624nm).

NRCMs [2] = test: Mitochondrial membrane potential by TMRE staining; format: cell-based, rat; conditions: 24 h of treatment
From the text: Fig S3 Mitochondrial membrane potential changes in response to TKIs. (A) Raw images of TMRE staining in NRCMs treated with different drugs. (B) Fold changes in mitochondrial membrane potential at different treatments.

NRCMs [3] = test: Lipid peroxidation by C11-bodipy 581/591 and flow cytometry
Experimental: as §1

Cor.4U hiPSC-CMs [4] = test: ATP level (CellTiter-Glo) in hiPSC-CMs; format: cell-based, human
Cor.4U hiPSC-CMs [5] = test system: Cor.4U hiPSC-CMs; design: method as in GSE114686; conditions: ref GSE114686, cited from earlier work
[6] = Sprague-Dawley, rat, 24 h, 10 µM

For `CNC(=O)c1cc(Oc2ccc(NC(=O)Nc3ccc(Cl)c(C(F)(F)F)c3)cc2)ccn1` [sorafenib], the “increase in percent of ROS-high cells” value (NRCMs [1]) was 16.2%, the mitochondrial membrane potential (NRCMs [2]) was “decreased the mitochondrial membrane potential significantly” and the “change in percent of cells with high lipid peroxidation” value (NRCMs [3]) was “increased slightly”. For the same molecule, the “level of lipid peroxidation, TKI alone” value (NRCMs [3]; [6]) was 94.6%, the “level of lipid peroxidation, TKI with trolox” value (NRCMs [3]; [6]) was 88% and the “effect on ATP levels” value (Cor.4U hiPSC-CMs [4]; 0.32 to 10 µM, day 1 to day 5) was “slight increase in the ATP level at day 1, but decrease at day 5”. The “EC50 (ATP) compared with maximal plasma concentration (Cmax)” value (Cor.4U hiPSC-CMs [4]; day 5) was “lower than or similar to their maximal plasma concentrations (Cmax)”, the “CHAC1 logFC” value (Cor.4U hiPSC-CMs [5]; Sorafenib 3.16 µM 168 hours) was 3.62 and the “DDIT3 logFC” value (Cor.4U hiPSC-CMs [5]; Sorafenib 3.16 µM 168 hours) was 4.28. The “DNAJB9 logFC” value (Cor.4U hiPSC-CMs [5]; Sorafenib 3.16 µM 168 hours) was 1, the “TRIB3 logFC” value (Cor.4U hiPSC-CMs [5]; Sorafenib 3.16 µM 168 hours) was 5.51 and the “XBP1 logFC” value (Cor.4U hiPSC-CMs [5]; Sorafenib 3.16 µM 168 hours) was 1.42. The “CHAC1 logFC” value (Cor.4U hiPSC-CMs [5]; Sorafenib 10 µM 24 hours) was 4.55, the “DDIT3 logFC” value (Cor.4U hiPSC-CMs [5]; Sorafenib 10 µM 24 hours) was 4.73 and the “DNAJB9 logFC” value (Cor.4U hiPSC-CMs [5]; Sorafenib 10 µM 24 hours) was 1.43. For the same molecule, the “TRIB3 logFC” value (Cor.4U hiPSC-CMs [5]; Sorafenib 10 µM 24 hours) was 5.56 and the “XBP1 logFC” value (Cor.4U hiPSC-CMs [5]; Sorafenib 10 µM 24 hours) was 1.79.
